From patent publication US20210283064A1, “STABLE, BIOADHESIVE, AND DIFFUSION-RESTRICTIVE COACERVATE” (The Chinese University of Hong Kong, priority 2020, published 2021)

Test system: DSS-induced colitis
Test: Rat model of DSS-induced colitis
Type: in vivo, SD rats
Conditions: H&E-stained colon sections, oral gavage days 1, 3, 5, sacrifice day 7
Source text: SD rats weighing around 250 g were given 4.5% DSS in drinking water for 7 days to develop acute colitis. Clinical manifestations of the colitis, such as severe rectal bleeding, watery diarrhea, and colonic edema were observed after 7 days. […] Untreated colitic SD rats were used as the negative control. All SD rats were allowed unrestricted access to water and standard laboratory diet before and after oral gavage and sacrificed on day 7 for further evaluation of colon weight and length, histological severity, IBD-associated colonic myeloperoxidase (MPO)-activity, mRNA levels of tight junction-associated proteins (ZO-1 and occludin-1) and pro-inflammatory cytokines, such as interleukin IL-1β and tumor necrosis factor (TNF) in the distal colon.

Q: For “dexamethasone sodium phosphate [Dex-P/PBS]”, which mean histopathology score is on record?
A: 1.917
